Values joined by “and” are separate entries in the source; they are usually repeats but may differ in a detail not shown here. Identical values can stand only once. Like-named read-outs stand apart in the source and are kept apart here. One block for each molecule: values may come before it.
Experiments:
[1] = Volatility of perfuming compounds in air; type: physicochemical
[2] = physchem
[3] = Log P (n-octanol/water) of perfuming compounds
[4] = Table 6, perfuming compounds having a fruity note
[5] = Table 10, perfuming compounds having a woody note
[6] = Table 5, perfuming compounds having a green note
[7] = Table 8, perfuming compounds having a sweet note
[8] = Table 9, perfuming compounds having a gourmand note

Molecule: C/C=C/C(=O)C1=C(C)C=CCC1(C)C
Volatility (μg/l air) [1, 4]: 119.10 μg/l air and 91.38 μg/l air
Volatility (μg/l air) [1, 5]: 91.38 μg/l air
logP ([2]; n-octanol/water): 3.27

Molecule: CC(C)(C)C1CCC(=O)CC1 [4-(2-methyl-2-propanyl)cyclohexanone]
Volatility (μg/l air) [1, 5]: 755.28 μg/l air
logP ([2]; n-octanol/water): 2.77

Molecule: C=CC1(C)CCCC(C)(C)O1 (racemic)
Volatility [1, 6]: 23116.66 μg/l air
logP ([2]; n-octanol/water): 3.59

Molecule: CCCC(O)CC[C@@H]1[C@@H](C)CCCC1(C)C (mixture of isomers)
Volatility (μg/l air) [1, 5]: 2.34 μg/l air
logP ([2]; n-octanol/water): 5.42

Molecule: O=C1CCCCCCCCCCC(=O)OCCO1 [1,4-dioxacyclohexadecane-5,16-dione]
Volatility (μg/l air) [1, 7]: 0.46 μg/l air
logP ([2]; n-octanol/water): 3.83

Molecule: CC1(C)[C@@H]2CC[C@@]1(C)C(=O)C2
Log P (n-octanol/water) ([3]; n-octanol/water, perfuming compounds having a fruity note (Table 6)): 2.50
Volatility ([1]; perfuming compounds having a fruity note (Table 6)): 555.04 μg/l air

Molecule: CCCCC/C=C\CCC=O [(Z)-4-DECENAL]
Volatility [1, 6]: 629.54 μg/l air

Molecule: COc1cc(C)ccc1O [2-METHOXY-4-METHYLPHENOL]
Volatility (μg/l air) [1, 7]: 306.61 μg/l air

Molecule: CC(=O)O[C@@H]1CC2CC[C@]1(C)C2(C)C
Volatility (μg/l air) [1, 5]: 735.37 μg/l air

Molecule: CC1C(C)(C)C2=C(C(=O)CCC2)C1(C)C (stereo not shown)
Volatility (μg/l air) [1, 5]: 29.81 μg/l air

Molecule: N#C/C=C/c1ccccc1 [(E)-3-PHENYL-2-PROPENENITRILE]
Volatility (μg/l air) [1, 5]: 66.00 μg/l air

Molecule: 3,7-DIMETHYL-2,6-NONADIENENITRILE (A) + 3,7-DIMETHYL-3,6-NONADIENENITRILE (B)
Volatility [1, 6]: 78.89 μg/l air

Molecule: CC1(CO)CC1CC1CC2CC2(C)C1(C)C (stereo not shown)
Volatility (μg/l air) [1, 5]: 1.74 μg/l air

Molecule: CCc1occc(=O)c1O [2-ETHYL-3-HYDROXY-4(4H)-PYRANONE]
Volatility (μg/l air) [1, 4]: 48.86 μg/l air
Volatility (μg/l air) [1, 7]: 48.86 μg/l air

Molecule: c1ccc(CCCc2ccccn2)cc1 [2-(3-PHENYLPROPYL)PYRIDINE]
Volatility [1, 6]: 3.83 μg/l air

Molecule: COc1cccc(OC)c1O [2,6-DIMETHOXYPHENOL]
Volatility (μg/l air) [1, 7]: 19.23 μg/l air
Volatility (μg/l air) [1, 8]: 19.23 μg/l air

Molecule: CC(=O)OCC=C(C)CCC=C(C)C (mixture of isomers) [GERANYL ACETATE (A) + NERYL ACETATE (B)]
Log P (n-octanol/water) [3, 6]: 3.99
Volatility [1, 6]: 85.23 μg/l air

Molecule: CC(=O)OCCc1ccccc1 [2-PHENYLETHYL ACETATE]
Volatility (μg/l air) [1, 7]: 201.26 μg/l air
Volatility (μg/l air) [1, 8]: 201.26 μg/l air

Molecule: C[C@@H]1CC[C@H]2[C@H](C)C(=O)O[C@@H]2C1
Volatility (μg/l air) [1, 8]: 74.03 μg/l air
logP ([2]; n-octanol/water): 2.11

Results, then the molecule that gave them:

Volatility (μg/l air) [1, 4]: 105.52 μg/l air
logP ([2]; n-octanol/water): 5.56
Molecule: CCCCCCOC(=O)CCCCC [HEXYL HEXANOATE]

Volatility [1, 6]: 2766.10 μg/l air
logP ([2]; n-octanol/water): 4.86
Molecule: CCCCSCCCC [DIBUTYL SULFIDE]

Log P (n-octanol/water) [3, 6]: 2.88
Volatility [1, 6]: 1617.21 μg/l air
Molecule: CCC(C)c1nccnc1OC (stereo not shown) [PYRAZOBUTYLE]

logP ([2]; n-octanol/water): 3.93
Molecule: C=C1CCCC(C)(C)C1C(=O)OC (racemic)

logP [2]: 0.8
Molecule: CCOC(C)=O [ETHYL ACETATE]

logP ([2]; n-octanol/water): 3.35
Molecule: CCOC(=O)/C(C)=C/C(C)C [ethyl (2E)-2,4-dimethyl-2-pentenoate]

Log P (n-octanol/water) [3, 5]: 4.62
Volatility (μg/l air) [1, 5]: 20.50 μg/l air
Molecule: CC(=O)C=CC1C(C)CCC(C)C1(C)C (racemic)

logP ([2]; n-octanol/water): 4.63
Molecule: CCCCCC1(C)CCC(C)(C)C1=O (racemic)

Volatility (μg/l air) [1, 5]: 14.41 μg/l air
logP ([2]; n-octanol/water): 5.5
Molecule: CC(=O)O[C@@H]1CC[C@@H]2C(C)(C)CCC[C@@]2(C)C1 (racemic)

logP ([2]; n-octanol/water): 2.04
Molecule: CC(=O)OCc1ccccc1 [benzyl acetate]

Volatility (μg/l air) [1, 4]: 36.33 μg/l air
Volatility (μg/l air) [1, 5]: 106.28 μg/l air
Molecule: CC(=O)/C(C)=C/C1C(C)=CCCC1(C)C (racemic)

logP ([2]; n-octanol/water): 2.02
Molecule: COC(=O)C=C1CCCC1 [methyl cyclopentylideneacetate]

Volatility (μg/l air) [1, 5]: 35.54 μg/l air
Molecule: COC(C)(C)CCCC(C)C(C)O (racemic)

logP ([2]; n-octanol/water): 3.58
Molecule: CCCCCCC(=O)OCC [ethyl heptanoate]

Volatility (μg/l air) [1, 5]: 172.78 μg/l air
Molecule: CC1=CCC(C(C)(C)O)CC1 (racemic) [(+−)-ALPHA-TERPINEOL]

Volatility [1, 6]: 5986.62 μg/l air
Molecule: CC/C=C\CCO [(Z)-3-HEXEN-1-OL]

Volatility [1, 6]: 4147.61 μg/l air
logP ([2]; n-octanol/water): 2.94
Molecule: CCCCCCCC=O [OCTANAL]

Volatility (μg/l air) [1, 5]: 8.25 μg/l air
logP ([2]; n-octanol/water): 6.44
Molecule: CC(=O)O[C@@H]1C(C)(C)CCC[C@]12CC=C(C)C[C@H]2C (racemic)

Volatility (μg/l air) [1, 4]: 21.05 μg/l air
Volatility (μg/l air) [1, 7]: 21.05 μg/l air
Volatility (μg/l air) [1, 8]: 21.05 μg/l air
Molecule: CCCCC[C@@H]1OC(=O)C[C@H]1C (racemic) [(+−)-TRANS-3-METHYL-4-NONANOLIDE]

Volatility [1, 6]: 3752.17 μg/l air
Molecule: CCC/C=C/CO [(E)-2-HEXEN-1-OL]
